The values that follow come from patent publication US9957274B2, “Indane inhibitors of EED and methods of their use” (AbbVie Inc., priority 2016, dated 2018).

SMILES strings stand for the structures. Where two headings read alike, the source gives them in different places.

The test system of assay [1] is Pfeiffer cells. As to the kind of experiment: CTG cell viability assay (CellTiter-Glo). The following applies: Homo sapiens, 240 h. The class given is cell-based. The method, then:
1,000 cells were plated into each well of 96-well Corning CellBing cell culture plates and incubated overnight at 37° C. in a humidified CO2 incubator. […] The cell culture plates were then incubated for 10 more days. CTG cell viability assay was performed on the cell culture samples by using CellTiter-Glo® Luminescent Cell Viability Assay Kit (Promega).
(Cellular ATP, detected with luciferase, serves as a proxy for viable cell number.)

The subject of assay [2] is H3K27me3 in OCILY19 cells. As to the kind of experiment: H3K27me3 AlphaLISA assay in OCILY19 cells. The class given is cell-based. Conditions: Homo sapiens, OCI-LY19, 144 h, 6 days with compound, read-out: OCILY-19 IC50. The method, then:
(§1) 5,000 cells were plated into each well of 96-well Corning CellBing cell culture plates and incubated overnight at 37° C. in a humidified CO2 incubator. […] The cell culture plates were then incubated for 6 more days. H3K27me3 AlphaLISA assay was performed on the cell culture samples by using AlphaLISAR® H3K27me3 Cellular Detection Kit (PerkinElmer) and 96-well white half-area plates (PerkinElmer).
(In general: Alpha assays give light when donor and acceptor beads are brought close together.)

The subject of assay [3] is H3K27me3 in G401 cells. As to the kind of experiment: H3K27me3 AlphaLISA assay in G401 cells. The format is cell-based. Conditions: Homo sapiens, G-401, 144 h, 6 days with compound. The method, then: as §1, with “G401 cells (ATCC catalog # CRL-1441) were maintained in McCoy's 5a medium (ATCC) supplemented with 10% heat-inactivated FBS (HyClone) at 37° C. in a humidified CO2 incubator. OCILY19 cells (DSMZ catalog #ACC 528) were maintained in IMDM (Invitrogen) supplemented with 10% human serum (Sigma) at 37° C. in a humidified CO2 incubator. 5,000” for “5,000”

Assay [4] addresses EED (Homo sapiens, UniProt O75530). In words: EED TR-FRET Binding Assay (modified LanthaScreen competition assay). A digest of the protocol: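 Competition binding in a modified LanthaScreen format, in 20 mM Tris-HCl pH 7.5, 200 mM NaCl, 0.01% Tween-20, 10 uM DTT and 0.05% BSA. Reactions ran 1 hour at 25° C before TR-FRET detection.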
For orientation: TR-FRET usually uses a lanthanide donor and a delayed reading to cut background.

The mark [5] stands for this setting: Pfeiffer cells, 10 days with compound, CellTiter-Glo, read-out: Cell Proliferation IC50.

Chain of EED (O75530 whole entry): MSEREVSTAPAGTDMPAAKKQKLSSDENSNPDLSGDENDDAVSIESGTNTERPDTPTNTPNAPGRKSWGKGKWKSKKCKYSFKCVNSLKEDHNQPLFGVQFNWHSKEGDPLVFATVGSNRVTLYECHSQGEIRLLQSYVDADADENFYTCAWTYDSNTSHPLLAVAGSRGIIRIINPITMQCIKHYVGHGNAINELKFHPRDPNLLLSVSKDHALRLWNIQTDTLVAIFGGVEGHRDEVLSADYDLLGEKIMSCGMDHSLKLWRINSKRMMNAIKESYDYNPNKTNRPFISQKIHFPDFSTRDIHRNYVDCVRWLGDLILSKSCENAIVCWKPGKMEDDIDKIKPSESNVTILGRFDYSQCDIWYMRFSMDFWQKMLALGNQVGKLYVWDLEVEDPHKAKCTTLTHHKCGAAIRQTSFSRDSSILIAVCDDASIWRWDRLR

For the molecule `CCS(=O)(=O)N1CCN(c2ccc([C@H]3CN(C4CCc5cccc(F)c54)C[C@@H]3N(C)C)cc2)CC1` (mixture of isomers) [Example 49, rac-(3R,4S)-4-{4-[4-(ethanesulfonyl)piperazin-1-yl]phenyl}-1-(7-fluoro-2,3-dihydro-1H-inden-1-yl)-N,N-dimethylpyrrolidin-3-amine], the IC50 in assay [1] (setting [5]) came out at 0.194 µM; in assay [2] it was 200 nM; in assay [3], 182 nM; in assay [4], 0.739 nM.
The matching figures for `CN(C)C(=O)N1CCN(c2ccc([C@H]3CN(C4CCc5cccc(F)c54)C[C@@H]3N(C)C)cc2)CC1` (mixture of isomers) [Example 63, rac-4-{4-[(3S,4R)-4-(dimethylamino)-1-(7-fluoro-2,3-dihydro-1H-inden-1-yl)pyrrolidin-3-yl]phenyl}-N,N-dimethylpiperazine-1-carboxamide]: 0.0727 µM, 191 nM, 55.6 nM and 1.47 nM.
Take `CN(C)[C@H]1CN(C2CCc3cccc(F)c32)C[C@@H]1C1CCN(c2ccc(C(N)=O)cn2)CC1` (mixture of isomers) [Example 167, rac-6-{4-[(3S,4R)-4-(dimethylamino)-1-(7-fluoro-2,3-dihydro-1H-inden-1-yl)pyrrolidin-3-yl]piperidin-1-yl}pyridine-3-carboxamide]: the IC50 in assay [1] (setting [5]) was determined as 0.143 µM; in assay [2] it was 267 nM; in assay [3], 131 nM; in assay [4], 0.399 nM.
The matching figures for `CN(C)[C@H]1CN(C2CCc3cccc(F)c32)C[C@@H]1c1ccc(-c2cnn(C)c2)cc1` (mixture of isomers) [Example 70, rac-(3R,4S)-1-(7-fluoro-2,3-dihydro-1H-inden-1-yl)-N,N-dimethyl-4-[4-(1-methyl-1H-pyrazol-4-yl)phenyl]pyrrolidin-3-amine]: 0.266 µM, 248 nM, 129 nM and 0.853 nM.
Turning to `CN(C)C(=O)N1CCN(c2cccc3c([C@H]4CN(C5CCc6cccc(F)c65)C[C@@H]4N(C)C)cn(C)c23)CC1` (mixture of isomers) [Example 131, rac-4-{3-[(3S,4R)-4-(dimethylamino)-1-(7-fluoro-2,3-dihydro-1H-inden-1-yl)pyrrolidin-3-yl]-1-methyl-1H-indol-7-yl}-N,N-dimethylpiperazine-1-carboxamide], the IC50 in assay [1] (setting [5]) was 0.122 µM; in assay [2] it was 158 nM; in assay [3], 57.3 nM; in assay [4], 0.406 nM.
The matching figures for `CN(C)C(=O)Cn1cc(-c2ccc([C@@H]3CN(C4CCc5cccc(F)c54)C[C@H]3N(C)C)cn2)cn1` (mixture of isomers) [Example 159, rac-2-(4-{5-[(3R,4S)-4-(dimethylamino)-1-(7-fluoro-2,3-dihydro-1H-inden-1-yl)pyrrolidin-3-yl]pyridin-2-yl}-1H-pyrazol-1-yl)-N,N-dimethylacetamide]: 0.246 µM, 237 nM, 158 nM and 1.14 nM.
The matching figures for `CN(C)[C@H]1CN(C2CCc3cccc(F)c32)C[C@@H]1c1cn(C)c2c(C(=O)N3C[C@H](O)[C@@H](O)C3)cccc12` (mixture of isomers) [Example 113, rac-[(3S,4S)-3,4-dihydroxypyrrolidin-1-yl]{3-[(3S,4R)-4-(dimethylamino)-1-(7-fluoro-2,3-dihydro-1H-inden-1-yl)pyrrolidin-3-yl]-1-methyl-1H-indol-7-yl}methanone]: 0.399 µM, 3280 nM, 799 nM and 0.679 nM.
The matching figures for `CN(C)[C@H]1CN(C2CCc3cccc(F)c32)C[C@@H]1c1cn(C)c2c(C(=O)N3CCN(S(=O)(=O)c4cncn4C)CC3)cccc12` (mixture of isomers) [Example 135, rac-{3-[(3S,4R)-4-(dimethylamino)-1-(7-fluoro-2,3-dihydro-1H-inden-1-yl)pyrrolidin-3-yl]-1-methyl-1H-indol-7-yl}[4-(1-methyl-1H-imidazole-5-sulfonyl)piperazin-1-yl]methanone]: 0.115 µM, 719 nM, 108 nM and 1.45 nM.
Turning to `CN(C)[C@@H]1CN(C2CCc3cccc(F)c32)C[C@H]1c1ccc(N2CCN(C(=O)CS(C)(=O)=O)CC2)nc1` (mixture of isomers) [Example 157, rac-1-(4-{5-[(3R,4S)-4-(dimethylamino)-1-(7-fluoro-2,3-dihydro-1H-inden-1-yl)pyrrolidin-3-yl]pyridin-2-yl}piperazin-1-yl)-2-(methanesulfonyl)ethan-1-one], the IC50 in assay [1] (setting [5]) was determined as 0.354 µM; in assay [2], 205 nM; in assay [3], 227 nM; in assay [4], 1.4 nM.
On the same counts, the results for `CNC(=O)c1ccc(N2CCC([C@H]3CN(C4CCc5cccc(F)c54)C[C@@H]3N(C)C)CC2)nc1` (mixture of isomers) [Example 154, rac-6-{4-[(3S,4R)-4-(dimethylamino)-1-(7-fluoro-2,3-dihydro-1H-inden-1-yl)pyrrolidin-3-yl]piperidin-1-yl}-N-methylpyridine-3-carboxamide] are 0.455 µM, 493 nM, 372 nM and 1.98 nM.
The matching figures for `CN1CCN(c2cccc3c([C@H]4CN(C5CCc6cccc(F)c65)C[C@@H]4N(C)C)cn(C)c23)CC1=O` (mixture of isomers) [Example 129, rac-4-{3-[(3S,4R)-4-(dimethylamino)-1-(7-fluoro-2,3-dihydro-1H-inden-1-yl)pyrrolidin-3-yl]-1-methyl-1H-indol-7-yl}-1-methylpiperazin-2-one]: 0.0981 µM, 102 nM, 186 nM and 0.739 nM.
For the molecule `CN(C)[C@H]1CN(C2CCc3cccc(F)c32)C[C@@H]1c1cn(C)c2c(C(=O)N3CCN(S(=O)(=O)N4CCC4)CC3)cccc12` (stereo partly drawn) [Example 132, [4-(azetidine-1-sulfonyl)piperazin-1-yl]{3-[(3S,4R)-4-(dimethylamino)-1-(7-fluoro-2,3-dihydro-1H-inden-1-yl)pyrrolidin-3-yl]-1-methyl-1H-indol-7-yl}methanone], the IC50 in assay [1] (setting [5]) came out at 0.0943 µM; in assay [2], 162 nM; in assay [3], 63.3 nM; in assay [4], 1.44 nM.
Turning to `CN(C)[C@H]1CN(C2CCc3cccc(F)c32)C[C@@H]1c1ccc(-c2cnn(CC(N)=O)c2)cc1` (mixture of isomers) [Example 71, rac-2-(4-{4-[(3S,4R)-4-(dimethylamino)-1-(7-fluoro-2,3-dihydro-1H-inden-1-yl)pyrrolidin-3-yl]phenyl}-1H-pyrazol-1-yl)acetamide], the IC50 in assay [1] (setting [5]) amounted to 0.108 µM; in assay [2] it was 155 nM; in assay [3] it was 52.1 nM; in assay [4], 1.13 nM.
The matching figures for `CN(C)[C@H]1CN(C2CCc3cccc(F)c32)C[C@@H]1C1CCN(c2ccc(C(N)=O)cc2)CC1` (mixture of isomers) [Example 166, rac-4-{4-[(3S,4R)-4-(dimethylamino)-1-(7-fluoro-2,3-dihydro-1H-inden-1-yl)pyrrolidin-3-yl]piperidin-1-yl}benzamide]: 0.129 µM, 275 nM, 228 nM and 0.454 nM.
As to `CC(=O)N1CCN(c2ccc([C@H]3CN([C@H]4CCc5cccc(F)c54)C[C@@H]3N(C)C)cc2)CC1` [Example 45, 1-[4-(4-{(3S,4R)-4-(dimethylamino)-1-[(1S)-7-fluoro-2,3-dihydro-1H-inden-1-yl]pyrrolidin-3-yl}phenyl)piperazin-1-yl]ethan-1-one], the IC50 in assay [1] (Pfeiffer, read-out: Cell Proliferation IC50 (uM)) was found to be 0.0284 µM; in assay [2] it was 43.3 nM; in assay [3], 31.1 nM; in assay [4] it was 0.303 nM.
`CN(C)[C@@H]1CN(C2CCc3cccc(F)c32)C[C@H]1c1ccc(N2CCN(c3ccncn3)CC2)cc1` (mixture of isomers) [Example 74, rac-(3S,4R)-1-(7-fluoro-2,3-dihydro-1H-inden-1-yl)-N,N-dimethyl-4-{4-[4-(pyrimidin-4-yl)piperazin-1-yl]phenyl}pyrrolidin-3-amine]: the IC50 was found to be 0.107 µM in assay [1] (setting [5]), 363 nM in assay [2], 185 nM in assay [3] and 0.633 nM in assay [4].
For `CN(C)[C@@H]1CN(C2CCc3cccc(F)c32)C[C@H]1c1ccc(N2CCN(c3ccccn3)CC2)cc1` (mixture of isomers) [Example 75, rac-(3S,4R)-1-(7-fluoro-2,3-dihydro-1H-inden-1-yl)-N,N-dimethyl-4-{4-[4-(pyridin-2-yl)piperazin-1-yl]phenyl}pyrrolidin-3-amine], the IC50 in assay [1] (setting [5]) was determined as 1.76 µM; in assay [2], 3170 nM; in assay [3], 2300 nM; in assay [4] it was 0.906 nM.
